Experimental data from PubChem BioAssay (NCI).
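Assay format: 96-well plates, 48-hour exposure. GI50 is the concentration that inhibits growth by half. TGI is the concentration that stops growth completely.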

How the values were obtained:
Experiment in all cases: NCI-60 cell line screen, 48 h
A498 renal = system: A498 renal
NCI/ADR-RES ovarian = system: NCI/ADR-RES ovarian
SNB-19 CNS = system: SNB-19 CNS
NCI-H522 lung = system: NCI-H522 lung
M14 melanoma = system: M14 melanoma
K-562 leukemia = system: K-562 leukemia
HOP-92 NSCLC = system: HOP-92 NSCLC
OVCAR-4 ovarian = system: OVCAR-4 ovarian
IGROV1 ovarian = system: IGROV1 ovarian
UACC-257 melanoma = system: UACC-257 melanoma

SMILES	GI50 (A498 renal) [µM]	TGI (A498 renal) [µM]	GI50 (NCI/ADR-RES ovarian) [µM]	TGI (NCI/ADR-RES ovarian) [µM]	GI50 (SNB-19 CNS) [µM]	TGI (SNB-19 CNS) [µM]	GI50 (NCI-H522 lung) [µM]	TGI (NCI-H522 lung) [µM]	GI50 (M14 melanoma) [µM]	TGI (M14 melanoma) [µM]	GI50 (K-562 leukemia) [µM]	GI50 (HOP-92 NSCLC) [µM]	TGI (HOP-92 NSCLC) [µM]	GI50 (OVCAR-4 ovarian) [µM]	TGI (OVCAR-4 ovarian) [µM]	GI50 (IGROV1 ovarian) [µM]	TGI (IGROV1 ovarian) [µM]	GI50 (UACC-257 melanoma) [µM]	TGI (UACC-257 melanoma) [µM]	TGI (K-562 leukemia) [µM]
CC(=O)[C@@]1(O)[C@H](C)C[C@H]2[C@@H]3C=C(C)C4=Cc5c(cnn5-c5ccccc5)C[C@]4(C)[C@H]3[C@@H](O)C[C@@]21C	3.45	14.7	1.91	9.75	3.29	14.2	2.83	8.85	2.84	13.6	0.659	2.42	14	3.85	31.1	2.64	11	4.06	13.4	–
Cc1cc(Oc2ccc3nc(COc4ccc(CC5SC(=O)NC5=O)cc4)n(C)c3c2)cc(C)c1N (centres undefined)	> 43.4	> 100	32.5	> 100	42.2	> 100	33.2	> 73.9	29.6	> 78.3	35.4	> 34.4	> 87.5	34.2	> 100	> 64.3	> 100	30.8	> 75.5	> 100
O=C(NCc1ccncc1)C12CC3CC(C1)CC(c1ccc(Cl)cc1)(C3)C2	7.85	20.8	17.2	87.8	13.5	27.8	13.5	28.8	12.7	26.9	6.93	12	25.2	10.9	32.8	13.3	29.3	12.4	25.1	34.9
CCc1ccc2c(c1)N(CCO)C1=C(C(=O)OC1)C2c1cccc(Cl)c1 (centres undefined)	0.36	11.4	0.337	5.05	1.33	25.1	0.242	2.76	0.584	12.2	0.485	12.7	27.8	0.834	28.8	3.75	37.6	0.772	23.6	23.9
COc1ccc(CNc2nc3cc(N)cc(N)c3nc2-c2ccccc2)cc1	> 100	> 100	22.7	83.3	41.5	> 100	10	22	18.1	32.2	25.4	13	37.2	8.12	21.3	12.9	27.1	16.3	30.4	97.1
C=CN(C)S(C)(=O)=O	> 100	> 100	> 100	> 100	> 100	> 100	> 100	> 100	> 100	> 100	> 100	> 100	> 100	> 100	> 100	> 100	> 100	> 100	> 100	> 100
CNC(=O)Oc1cc(C)c(/C=C/c2cncc(C(=O)NC)c2)c(C)c1	> 25	> 25	> 25	> 25	> 25	> 25	> 23.4	> 25	16.8	> 25	15.3	9.13	> 25	> 25	> 25	> 23.2	> 25	24.7	> 25	> 25
CCS(=O)(=O)Nc1cccc(Nc2c3cccc(C)c3nc3c(C)cccc23)c1OC	0.392	6.01	3.23	60.2	0.572	> 88.3	2.58	19.5	0.435	> 100	1.55	0.399	7.4	9.78	> 75.8	1.8	> 70.2	2.46	38.5	> 45.3
CSc1ncnc2c1ncn2C1OC(CO)C(O)OC1O (centres undefined)	–	> 53.1	–	> 93.1	–	51.5	–	> 100	–	39.1	–	–	22.7	–	96.3	–	18.9	–	15.2	59.8
O=c1oc2ccc(-n3c(=O)c4ccccc4c4ccccc4c3=O)cc2c2ccccc12	–	> 100	–	> 100	–	> 100	–	> 100	–	> 100	–	–	84.5	–	> 100	–	> 100	–	> 100	> 100
CCOC(=O)C(C)(C)C(O)C(C)C (centres undefined)	–	> 100	–	> 100	–	> 100	–	> 100	–	> 100	–	–	> 100	–	> 100	–	> 100	–	> 100	> 100
